Assay results from US8445503B2, “Inhibitors of polo-like kinase” (Elan Pharmaceuticals, Inc., priority 2009, dated 2013).

Key:
[1] = biological target: PLK2 (Homo sapiens, UniProt Q9NYY3); test: Kinase panel screening at InVitrogen Corporation, PLK2; conditions: screening at 10 μM compound
[2] = biological target: ABL1 (Homo sapiens, UniProt P00519); test: Kinase panel screening and titration, ABL1
[3] = biological target: PLK1 (Homo sapiens, UniProt P53350); test: Kinase panel screening at InVitrogen Corporation, PLK1; conditions: screening at 10 μM compound
[4] = biological target: KDR (Homo sapiens, UniProt P35968); test: Kinase panel screening and titration, KDR
[5] = tested on: over 300 kinases, including CDK-1, CDK-2, CDK-5, CLK-1, CLK-2, CLK-3, CLK-4, NEK-1, NEK-2, NEK-4, NEK-6, NEK-7, MAP4K4 and STK16; test: Kinase panel screening at InVitrogen Corporation, over 300 kinases; conditions: 10 μM compound; all but 21 of over 300 kinases, including CDK-1, CDK-2, CDK-5, CLK-1 to CLK-4, NEK-1, -2, -4, -6, -7, MAP4K4, STK16
[6] = biological target: T1, GST-PLK2 (Homo sapiens, UniProt Q9NYY3); test: PLK TR-FRET peptide assay, PLK2; format: biochemical; conditions: PLK TR-FRET peptide assay, GST-PLK2; read-out: Plk2 IC50
T1 construct: purchased CarnaBio

[7] = biological target: T2, GST-PLK3 (Homo sapiens, UniProt Q9H4B4); test: PLK TR-FRET peptide assay, PLK3; format: biochemical; conditions: PLK TR-FRET peptide assay, GST-PLK3; read-out: Plk3 IC50
T2 construct: purchased CarnaBio

[8] = biological target: GST-PLK1 (Homo sapiens, UniProt P53350); test: PLK TR-FRET peptide assay, PLK1; format: biochemical; conditions: read-out: Plk1 IC50
GST-PLK1, sequence (P53350 whole entry): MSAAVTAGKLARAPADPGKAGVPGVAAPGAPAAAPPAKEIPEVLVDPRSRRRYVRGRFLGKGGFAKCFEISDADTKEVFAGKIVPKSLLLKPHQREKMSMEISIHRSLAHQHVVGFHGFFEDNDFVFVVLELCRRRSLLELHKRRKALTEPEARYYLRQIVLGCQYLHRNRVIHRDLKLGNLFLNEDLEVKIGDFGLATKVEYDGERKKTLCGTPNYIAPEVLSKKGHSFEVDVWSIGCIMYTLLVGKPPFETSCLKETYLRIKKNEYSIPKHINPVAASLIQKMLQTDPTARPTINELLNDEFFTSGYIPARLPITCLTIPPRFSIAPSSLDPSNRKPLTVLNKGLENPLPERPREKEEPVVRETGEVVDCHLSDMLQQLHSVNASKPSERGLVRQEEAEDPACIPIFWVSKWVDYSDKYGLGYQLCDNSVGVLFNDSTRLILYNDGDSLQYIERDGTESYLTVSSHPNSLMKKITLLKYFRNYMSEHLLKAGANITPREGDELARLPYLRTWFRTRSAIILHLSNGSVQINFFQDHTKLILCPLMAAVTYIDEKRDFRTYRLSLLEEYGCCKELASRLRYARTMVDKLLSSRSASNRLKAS

PLK2, sequence (Q9NYY3 whole entry): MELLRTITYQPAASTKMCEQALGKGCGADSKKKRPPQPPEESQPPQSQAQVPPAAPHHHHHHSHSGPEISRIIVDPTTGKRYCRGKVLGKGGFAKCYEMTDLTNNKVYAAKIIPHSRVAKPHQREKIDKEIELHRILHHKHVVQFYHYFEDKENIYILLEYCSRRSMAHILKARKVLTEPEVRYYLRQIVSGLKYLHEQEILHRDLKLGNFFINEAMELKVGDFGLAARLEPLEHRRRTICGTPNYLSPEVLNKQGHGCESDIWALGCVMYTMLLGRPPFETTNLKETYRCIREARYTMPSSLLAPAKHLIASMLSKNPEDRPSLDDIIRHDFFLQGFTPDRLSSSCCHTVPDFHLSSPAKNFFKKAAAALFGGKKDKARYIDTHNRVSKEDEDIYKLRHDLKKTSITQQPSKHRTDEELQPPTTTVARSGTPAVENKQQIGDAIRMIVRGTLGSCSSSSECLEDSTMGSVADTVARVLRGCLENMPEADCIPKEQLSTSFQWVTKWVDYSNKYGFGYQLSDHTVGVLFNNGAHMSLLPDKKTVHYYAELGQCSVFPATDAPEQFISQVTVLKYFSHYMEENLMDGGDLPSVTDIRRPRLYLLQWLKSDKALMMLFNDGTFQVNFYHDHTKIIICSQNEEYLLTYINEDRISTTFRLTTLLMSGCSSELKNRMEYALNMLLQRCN
PLK1, sequence (P53350 whole entry): as the sequence (P53350 whole entry) above
KDR, sequence (P35968 20-1356): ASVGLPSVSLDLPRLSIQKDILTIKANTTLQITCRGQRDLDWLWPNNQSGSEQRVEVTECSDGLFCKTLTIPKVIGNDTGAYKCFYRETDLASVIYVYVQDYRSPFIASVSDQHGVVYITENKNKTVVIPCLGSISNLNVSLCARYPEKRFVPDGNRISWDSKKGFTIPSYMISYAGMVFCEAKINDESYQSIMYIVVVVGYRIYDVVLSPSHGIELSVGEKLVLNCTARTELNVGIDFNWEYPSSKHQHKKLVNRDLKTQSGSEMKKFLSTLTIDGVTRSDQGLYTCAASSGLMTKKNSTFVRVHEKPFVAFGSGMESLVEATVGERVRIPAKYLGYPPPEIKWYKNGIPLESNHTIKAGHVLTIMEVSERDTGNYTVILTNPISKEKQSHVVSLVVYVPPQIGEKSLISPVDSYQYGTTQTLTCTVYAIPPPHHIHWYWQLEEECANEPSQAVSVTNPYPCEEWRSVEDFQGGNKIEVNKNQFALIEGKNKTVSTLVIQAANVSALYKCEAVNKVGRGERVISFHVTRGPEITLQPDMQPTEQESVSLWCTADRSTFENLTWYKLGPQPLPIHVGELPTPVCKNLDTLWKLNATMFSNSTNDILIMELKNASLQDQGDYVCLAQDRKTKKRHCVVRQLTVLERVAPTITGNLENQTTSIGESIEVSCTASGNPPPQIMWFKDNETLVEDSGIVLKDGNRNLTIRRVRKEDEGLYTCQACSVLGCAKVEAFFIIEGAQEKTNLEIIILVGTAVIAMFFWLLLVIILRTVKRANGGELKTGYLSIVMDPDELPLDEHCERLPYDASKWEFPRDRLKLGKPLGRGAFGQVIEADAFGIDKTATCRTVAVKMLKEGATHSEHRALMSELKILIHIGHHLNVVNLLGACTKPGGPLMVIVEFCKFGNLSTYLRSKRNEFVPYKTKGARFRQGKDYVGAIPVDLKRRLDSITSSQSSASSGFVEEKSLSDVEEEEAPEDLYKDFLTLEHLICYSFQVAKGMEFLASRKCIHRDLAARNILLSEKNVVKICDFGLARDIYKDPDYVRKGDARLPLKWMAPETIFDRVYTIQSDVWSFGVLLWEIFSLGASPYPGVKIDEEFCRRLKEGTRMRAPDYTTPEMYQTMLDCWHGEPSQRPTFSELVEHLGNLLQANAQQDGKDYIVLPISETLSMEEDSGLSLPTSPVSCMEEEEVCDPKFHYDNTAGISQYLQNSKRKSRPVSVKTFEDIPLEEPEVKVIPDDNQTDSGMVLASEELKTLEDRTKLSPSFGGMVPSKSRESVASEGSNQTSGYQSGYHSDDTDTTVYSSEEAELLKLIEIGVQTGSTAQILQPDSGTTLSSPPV
ABL1, sequence (P00519 whole entry): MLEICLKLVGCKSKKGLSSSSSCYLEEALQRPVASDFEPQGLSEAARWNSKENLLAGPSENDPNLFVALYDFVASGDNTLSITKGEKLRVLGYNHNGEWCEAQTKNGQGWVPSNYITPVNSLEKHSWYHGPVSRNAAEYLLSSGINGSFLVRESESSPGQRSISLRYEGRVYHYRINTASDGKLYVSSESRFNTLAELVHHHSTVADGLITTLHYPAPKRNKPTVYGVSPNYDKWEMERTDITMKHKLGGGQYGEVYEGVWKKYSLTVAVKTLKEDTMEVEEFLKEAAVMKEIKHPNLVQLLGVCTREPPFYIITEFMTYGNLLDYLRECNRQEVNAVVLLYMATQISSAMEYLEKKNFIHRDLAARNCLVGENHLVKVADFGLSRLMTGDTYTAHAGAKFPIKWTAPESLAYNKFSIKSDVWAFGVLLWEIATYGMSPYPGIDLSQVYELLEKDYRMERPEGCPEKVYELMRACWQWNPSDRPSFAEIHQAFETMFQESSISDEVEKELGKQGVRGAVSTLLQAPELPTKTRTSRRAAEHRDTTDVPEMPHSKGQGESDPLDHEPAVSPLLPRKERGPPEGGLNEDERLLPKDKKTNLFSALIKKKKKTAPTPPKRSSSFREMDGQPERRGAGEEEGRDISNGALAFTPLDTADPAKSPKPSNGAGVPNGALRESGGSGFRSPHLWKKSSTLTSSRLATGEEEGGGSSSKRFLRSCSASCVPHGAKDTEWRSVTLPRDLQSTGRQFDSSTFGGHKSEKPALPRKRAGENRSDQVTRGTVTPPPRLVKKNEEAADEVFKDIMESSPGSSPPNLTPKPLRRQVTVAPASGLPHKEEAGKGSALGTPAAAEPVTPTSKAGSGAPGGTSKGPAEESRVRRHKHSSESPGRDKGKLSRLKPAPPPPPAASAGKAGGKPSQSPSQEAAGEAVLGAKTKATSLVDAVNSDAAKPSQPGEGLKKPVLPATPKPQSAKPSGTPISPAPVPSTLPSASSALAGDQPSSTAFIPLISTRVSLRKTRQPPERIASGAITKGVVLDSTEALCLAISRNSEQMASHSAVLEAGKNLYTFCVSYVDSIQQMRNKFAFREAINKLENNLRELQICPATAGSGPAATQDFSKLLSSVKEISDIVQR
T2 sequence (Q9H4B4 whole entry): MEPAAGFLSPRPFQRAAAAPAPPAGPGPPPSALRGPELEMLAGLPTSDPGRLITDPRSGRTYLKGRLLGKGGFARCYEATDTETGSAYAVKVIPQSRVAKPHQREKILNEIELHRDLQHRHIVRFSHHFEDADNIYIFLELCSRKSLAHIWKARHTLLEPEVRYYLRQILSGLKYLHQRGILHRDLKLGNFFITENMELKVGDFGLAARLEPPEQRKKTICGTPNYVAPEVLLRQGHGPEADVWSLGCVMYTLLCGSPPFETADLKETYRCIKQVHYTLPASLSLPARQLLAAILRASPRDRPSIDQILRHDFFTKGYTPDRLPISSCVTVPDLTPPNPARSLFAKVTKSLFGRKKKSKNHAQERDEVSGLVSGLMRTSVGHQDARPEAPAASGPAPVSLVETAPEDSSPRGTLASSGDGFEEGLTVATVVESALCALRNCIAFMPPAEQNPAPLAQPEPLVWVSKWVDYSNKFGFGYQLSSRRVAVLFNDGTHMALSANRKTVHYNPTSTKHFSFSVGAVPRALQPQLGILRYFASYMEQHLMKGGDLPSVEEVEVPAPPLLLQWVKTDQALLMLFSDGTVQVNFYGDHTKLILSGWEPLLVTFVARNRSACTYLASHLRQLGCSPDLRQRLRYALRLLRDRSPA
T1 sequence (Q9NYY3 whole entry): as the sequence (Q9NYY3 whole entry) above

CC[C@@H]1C(=O)N(C)c2cnc(-n3ccnc3-c3ccccc3)nc2N1C1CCCC1 [Example 26, (R)-8-cyclopentyl-7-ethyl-5-methyl-2-(2-phenyl-1H-imidazol-1-yl)-7,8-dihydropteridin-6(5H)-one]
activity against PLK2 in kinase panel [1]: potent

CC[C@@H]1C(=O)N(C)c2cnc(-n3ccnc3-c3cccc(F)c3)nc2N1C1CCOC1 (stereo partly drawn) [Example 192]
percent inhibition of ABL1 ([2]; 10 μM compound): greater than 80%
IC50 ([2]; read-out: IC50 ABL1, when titrated): > 10 µM
activity against PLK2 in kinase panel [1]: potent
activity against PLK1 in kinase panel [3]: potent
percent inhibition of KDR ([4]; 10 μM compound): greater than 80%
IC50 ([4]; read-out: IC50 KDR, when titrated): > 10 µM
percent inhibition of kinase [5]: below 40%

CC[C@@H]1C(=O)N(C)c2cnc(-n3ccnc3-c3cscn3)nc2N1C1CCCC1 [Example 68]
activity against PLK2 in kinase panel [1]: potent
activity against PLK1 in kinase panel [3]: potent

CC[C@@]12CCCN1c1nc(-n3ccnc3-c3ccccc3)ncc1N(C)C2=O [Example 76, (S)-6a-ethyl-5-methyl-2-(2-phenyl-1H-imidazol-1-yl)-6a,7,8,9-tetrahydropyrrolo[2,1-h]pteridin-6(5H)-one]
IC50 [6]: < 1 µM
activity against PLK2 in kinase panel [1]: potent
activity against PLK1 in kinase panel [3]: potent
IC50 [7]: 1 to 10 µM
IC50 [8]: 10 to 50 µM
